Legend:
Format in all cases: in vivo
mice [1] = assay: Hypercalcemia assay: murine hypercalcemia model, single SC injection, blood ionized calcium
Description: Mice were challenged with vehicle (PBS, —X—), or with PTH-(1-34) (open symbols) or with PTH-(1-34)-Fc (closed symbols). Doses were 156 nmol/kg (circles), 469 nmol/kg (triangles) or 1,560 nmol/kg (squares). Data represent group means, n=6 mice/group.
We tested the potency and duration of effect of PTH-(1-34)-Fc in a murine hypercalcemia model. Briefly, mice were injected once SC with varying doses of PTH-(1-34) or PTH-(1-34)-Fc, and peripheral blood was collected from the retroorbital sinus for determination of blood ionized calcium. The half-life and the potency of PTH-(1-34)-Fc was greater than that of PTH-(1-34), as evidenced by the sustained hypercalcemic response of mice to the former agent (FIG. 4). Hypercalcemia induced by PTH-(1-34) persisted for 6-24 h, while equimolar doses of PTH-(1-34)-Fc caused more sustained hypercalcemia (48-72 h). This duration of response is consistent with greater half-life of the PTH-(1-34)-Fc construct vs. PTH-(1-34).

[2] = test system: aged ovariectomized (OVX) rats; assay: Monotherapy in aged ovariectomized (OVX) rats: twice-weekly treatment, BMD by DEXA and serum calcium
Description: Eleven months after OVX, rats were treated twice per week with phosphate-buffered saline (PBS, vehicle) or with APD (0.5 mg/kg) or with PTH-(1-34)-Fc (50 nmol/kg). DEXA was performed weekly. Blood was drawn 24 hours after the second weekly injection, when the calcemic effects of PTH-Fc are typically maximal. The effects of PTH-Fc administration on lumbar BMD (FIG. 11A), tibia/femur BMD (FIG. 11B), femoral metaphysis BMD (FIG. 11C), and serum calcium (FIG. 11D) were determined.
Sprague Dawley rats were OVX'd at 3 months of age and allowed to lose bone for 11 months. Other rats were sham-operated and treated twice per week with vehicle (PBS). OVX rats were treated twice per week with SC injections of either vehicle or the bisphosphonate APD (pamidronate, 0.5 mg/kg), or with PTH-(1-34)-Fc (50 nmol/kg) or with APD+PTH-(1-34)-Fc. BMD was determined weekly via dual energy X-ray absorptiometry (DEXA). Rats were sacrificed after 4 weeks of treatment. At the start of treatment, OVX rats had significant reductions in BMD at all skeletal sites analyzed, compared to vehicle-treated […] (FIG. 11, p<0.05, 2-way ANOVA).

mice [3] = assay: Chronic hypercalcemia induced by PTH-(1-34)-Fc challenge, antagonist given SC; details: 30 mg/kg single SC, 24 h post challenge, vehicle-treated normal mice (normal control 1.35); the values are: blood ionized calcium
Description: Normal male mice were challenged once by SC injection with PTH-(1-34)-Fc (30 mg/kg) (open circles), or with vehicle (PBS, open squares). Some PTH-(1-34)-Fc-challenged mice were treated once, at the time of challenge, with [Asn10,Leu11]PTHrP-(7-34)-Fc at 10 (closed triangle), 30 (closed circle), or 100 mg/kg (closed square). […] Data represent means±SEM, n=5 mice/group.
In order to test the ability of [Asn10,Leu11]PTHrP-(7-34)-Fc to antagonize more chronic hypercalcemia, we used PTH-(1-34)-Fc as a long-acting calcemic agent. This study also represents a model for primary and secondary hyperparathyroidism, diseases which are characterized by persistent elevation of PTH levels. In vehicle-treated mice, a single SC injection of PTH-(1-34)-Fc (30 mg/kg) caused a robust hypercalcemic response in normal mice, reaching a level of 2.75 mg/dl at 24 h post challenge (vs. normal control value of 1.35).

mice [4] = assay: Mouse bioassay: SC injection days 0, 5, 10; clinical chemistry (calcium, AP, TRAP) and tibial pQCT
Description: Peripheral blood was obtained daily for 3 days following single subcutaneous injections of the indicated compounds.
Peripheral quantitative computed tomography (pQCT) was performed on the proximal tibial metaphysis of mice on day 15, after injections of PTH constructs on day 0, 5 and 10.
We then tested the effects of PTH-(1-34), PTH-(1-34)-Fc, PTH-(1-31)-Fc and PTH-(1-30)-Fc in mice. Four week old male mice were injected on days 0, 5, and 10 with vehicle or with PTH fragments, by SC injection. Peripheral blood was obtained for clinical chemistry at 24, 48, and 72 h. Mice were killed on day 15, vertebrae, tibiae and femurs were harvested for histology and one tibia was collected for bone density measurements (peripheral quantitative computed tomography, pQCT). Clinical chemistry endpoints included total serum calcium, serum alkaline phosphatase (AP, a marker of osteoblast activity), and serum tartrate-resistant acid phosphatase (TRAP, a marker of osteoclast activity). For each animal, the ratio of AP:TRAP was calculated as an index of relative osteoblast activity compared to osteoclast activity. A higher AP:TRAP ratio would indicate a potentially more anabolic agent.

Sprague Dawley (SD) rats = assay: Anabolic assay: lumbar (L3) BMD by DEXA, PTH constructs with or without OPG-Fc; details: 6-month-old male SD rats, DEXA Day 7; OPG-Fc 1 mg/kg once; PTH-(1-34) 20 nMoles/kg x3; PTH-(1-34)-Fc 60 nMoles/kg once
Description: Briefly, 6-month-old male Sprague Dawley (SD) rats were divided into groups of 6. Baseline bone mineral density (BMD) was determined in the third lumbar vertebra (L3) of all rats by dual-energy X-ray absorptiometry (DEXA) (Day 0). Rats were then treated according to the following schedule:
Group 1: Vehicle controls (PBS, injected SC, Days 1, 3, and 5)
Group 2: OPG-Fc, single SC injection (1 mg/kg) on Day 1
Group 3: PTH-(1-34), SC injections on Days 1, 3, and 5, at 20 nMoles PTH/kg/injection. This represents an optimal anabolic PTH regimen.
Group 4: Same as group 3, but with a single OPG-Fc injection on Day 1.
Group 5: Single SC injection of PTH-(1-34)-Fc at 60 nMoles/kg, on Day 1. This represents a molar dose which is equivalent to the total dose of PTH-(1-34) received by group 3, but in a single injection.
Group 6: Same as group 5, but with a single OPG-Fc injection (SC, 1 mg/kg) on Day 1.
DEXA of the lumbar spine was performed again on Day 7 to evaluate changes in BMD. […] The anabolic effect of a single treatment with PTH-(1-34)-Fc plus OPG-Fc was greater than that induced by multiple injections of PTH-(1-34), with or without OPG-Fc co-treatment.
Normal 6 month old male rats were treated with PTH-Fc or PTH or vehicle by a single SC injection. Some rats also received a single SC injection of OPG. BMD was determined 7 days later by DEXA. Data represent means+SD, N=6 rats/group.

PTH-(1-34)-Fc: human PTH-(1-34), SVSEIQLMHNLGKHLNSMERVEWLRKKLQDVHNF, linked at its C-terminus to an Fc domain
peak ionized calcium levels compared with an equimolar dose of PTH-(1-34) (mice [1]; highest dose): greater increase in peak ionized calcium levels | hypercalcemic response (area under the curve) relative to equimolar PTH-(1-34) (mice [1]; highest dose employed): 2.6 fold | potency compared with PTH-(1-34) (mice [1]; hypercalcemic response): significantly greater | duration of hypercalcemia (mice [1]; single SC injection, equimolar doses, blood ionized calcium): 48 to 72 h | calcemic response ([2]; 50 nmol/kg twice per week, alone): mild and transient hypercalcemic response | BMD at the femoral metaphysis ([2]; PTH-(1-34)-Fc 50 nmol/kg twice per week, alone or with APD 0.5 mg/kg, p<0.05): significant increase in BMD | day after which hypercalcemic response resolved spontaneously ([2]; despite continued treatments): > 10 days | reversal of bone loss induced by one year of estrogen ablation ([2]; twice weekly dosing): more than 50% | duration of treatment at which BMD increase at the femoral metaphysis was significant ([2]; twice-weekly treatment): 4 weeks | level reached in hypercalcemic response (mice [3]): 2.75 mM | calculated AP:TRAP ratio (mice [4]; 300 nmoles/kg): increased over time | serum AP (osteoblast marker) (mice [4]; 300 nmoles/kg (given for PTH-(1-34)-Fc), 72 h): significantly elevated | time of peak serum calcium (mice [4]; 300 nmoles/kg SC): 24 h | serum calcium (mice [4]; 300 nmoles/kg SC (equimolar), 24, 48, 72 h): dramatic and sustained increase | bone mineral density (proximal tibial metaphysis) (mice [4]; 300 nmoles/kg on day 0, 5, 10, pQCT day 15): no effect | serum TRAP (osteoclast marker) (mice [4]; mice, after single SC injection): not significantly changed | BMD in L3 compared to PBS-treated rats (Sprague Dawley (SD) rats): failed to increase BMD

Reference: patent publication US6756480B2, “Modulators of receptors for parathyroid hormone and parathyroid hormone-related protein” (Amgen Inc., priority 2000, dated 2004)
